Laboratory results reported in the kinase profiling compilation of Christmann-Franck et al. (2016).

Experiments:
Experiment in all cases: radiometric filter-binding kinase assay
BTK (human) = BTK (human) (UniProt Q06187)
SYK (human) = SYK (human) (UniProt P43405); conditions: compound 10.0 µM
MKNK2 (human) = MKNK2 (human) (UniProt Q9HBH9)
PAK7 (human) = PAK7 (human) (UniProt Q9P286)
CHEK2 (human) = CHEK2 (human) (UniProt O96017)
PRKAA1 or PRKAA2 (rat) = conditions: accession and sequence are those of the human protein
MAPK1 (human) = MAPK1 (human) (UniProt P28482)
IKBKE (human) = IKBKE (human) (UniProt Q14164)
Sequence of IKBKE (human) (Q14164 whole entry, looked up): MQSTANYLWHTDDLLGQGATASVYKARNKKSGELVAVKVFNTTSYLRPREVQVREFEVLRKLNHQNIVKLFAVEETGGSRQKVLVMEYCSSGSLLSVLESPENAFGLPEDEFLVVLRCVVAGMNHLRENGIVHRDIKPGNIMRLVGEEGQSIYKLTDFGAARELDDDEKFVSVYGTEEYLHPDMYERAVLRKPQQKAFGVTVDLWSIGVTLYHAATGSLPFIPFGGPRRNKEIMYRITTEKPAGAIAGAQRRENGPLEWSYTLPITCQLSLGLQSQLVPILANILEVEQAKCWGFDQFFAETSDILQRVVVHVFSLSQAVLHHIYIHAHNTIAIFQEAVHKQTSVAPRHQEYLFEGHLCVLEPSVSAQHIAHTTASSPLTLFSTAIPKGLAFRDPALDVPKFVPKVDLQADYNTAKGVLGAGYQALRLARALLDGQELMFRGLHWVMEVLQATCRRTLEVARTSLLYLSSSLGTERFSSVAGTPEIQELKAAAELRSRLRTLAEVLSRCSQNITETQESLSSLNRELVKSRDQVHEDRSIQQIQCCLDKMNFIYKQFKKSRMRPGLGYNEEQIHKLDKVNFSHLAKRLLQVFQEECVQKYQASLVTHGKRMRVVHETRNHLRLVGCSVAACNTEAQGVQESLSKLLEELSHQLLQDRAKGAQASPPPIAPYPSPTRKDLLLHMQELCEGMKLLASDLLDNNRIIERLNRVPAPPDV

EPHB1 (human) = EPHB1 (human) (UniProt P54762)
SRC (human) = SRC (human) (UniProt P12931)
CDK2 CCNA2 (human) = CDK2 CCNA2 (human) (UniProt P20248+P24941)
NEK2 (human) = NEK2 (human) (UniProt P51955)
PRKACA (human) = PRKACA (human) (UniProt P17612)
[1] = tested on: RPS6KB1 (human), P23443 [T412E]
[2] = tested on: AKT2 (human), P31751 [S474D]
FLT1 (human) = FLT1 (human) (UniProt P17948)
Sequence of FLT1 (human) (P17948 whole entry, looked up): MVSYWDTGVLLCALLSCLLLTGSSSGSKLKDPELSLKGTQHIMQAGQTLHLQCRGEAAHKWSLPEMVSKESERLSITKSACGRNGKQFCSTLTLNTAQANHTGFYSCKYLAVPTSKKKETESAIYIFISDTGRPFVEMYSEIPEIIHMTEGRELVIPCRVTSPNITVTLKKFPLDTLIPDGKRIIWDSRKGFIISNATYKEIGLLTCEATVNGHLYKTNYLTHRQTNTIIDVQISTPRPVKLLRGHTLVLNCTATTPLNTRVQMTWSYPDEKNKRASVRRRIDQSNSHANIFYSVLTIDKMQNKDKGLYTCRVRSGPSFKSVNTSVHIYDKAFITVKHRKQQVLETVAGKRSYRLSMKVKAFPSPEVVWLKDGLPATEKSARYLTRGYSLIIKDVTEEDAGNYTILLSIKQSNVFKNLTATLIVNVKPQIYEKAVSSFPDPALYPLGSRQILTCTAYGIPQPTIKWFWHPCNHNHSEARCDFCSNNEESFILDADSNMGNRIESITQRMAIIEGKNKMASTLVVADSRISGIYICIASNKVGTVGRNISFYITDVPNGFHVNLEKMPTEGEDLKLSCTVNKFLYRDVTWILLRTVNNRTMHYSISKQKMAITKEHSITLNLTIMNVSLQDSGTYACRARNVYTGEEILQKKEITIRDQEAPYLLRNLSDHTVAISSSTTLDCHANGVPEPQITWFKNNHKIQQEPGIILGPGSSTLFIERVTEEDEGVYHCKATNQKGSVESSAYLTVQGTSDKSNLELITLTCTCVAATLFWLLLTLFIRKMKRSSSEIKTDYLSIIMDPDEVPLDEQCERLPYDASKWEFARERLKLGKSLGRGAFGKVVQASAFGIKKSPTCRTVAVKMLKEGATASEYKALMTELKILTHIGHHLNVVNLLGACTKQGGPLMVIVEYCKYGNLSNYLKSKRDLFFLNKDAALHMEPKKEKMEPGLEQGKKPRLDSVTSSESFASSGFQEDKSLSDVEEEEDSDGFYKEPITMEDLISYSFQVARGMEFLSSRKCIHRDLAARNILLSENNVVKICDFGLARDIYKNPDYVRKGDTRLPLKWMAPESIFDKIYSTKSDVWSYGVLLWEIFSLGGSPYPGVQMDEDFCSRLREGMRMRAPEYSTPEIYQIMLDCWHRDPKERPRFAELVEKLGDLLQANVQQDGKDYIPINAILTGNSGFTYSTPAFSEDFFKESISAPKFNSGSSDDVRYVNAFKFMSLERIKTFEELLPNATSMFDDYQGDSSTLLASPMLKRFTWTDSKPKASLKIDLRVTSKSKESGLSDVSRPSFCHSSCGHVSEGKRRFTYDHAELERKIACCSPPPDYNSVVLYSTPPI

INSRR (human) = INSRR (human) (UniProt P14616)
CSK (human) = CSK (human) (UniProt P41240)
CSNK1D (human) = CSNK1D (human) (UniProt P48730)
Sequence of CSNK1D (human) (P48730 whole entry, looked up): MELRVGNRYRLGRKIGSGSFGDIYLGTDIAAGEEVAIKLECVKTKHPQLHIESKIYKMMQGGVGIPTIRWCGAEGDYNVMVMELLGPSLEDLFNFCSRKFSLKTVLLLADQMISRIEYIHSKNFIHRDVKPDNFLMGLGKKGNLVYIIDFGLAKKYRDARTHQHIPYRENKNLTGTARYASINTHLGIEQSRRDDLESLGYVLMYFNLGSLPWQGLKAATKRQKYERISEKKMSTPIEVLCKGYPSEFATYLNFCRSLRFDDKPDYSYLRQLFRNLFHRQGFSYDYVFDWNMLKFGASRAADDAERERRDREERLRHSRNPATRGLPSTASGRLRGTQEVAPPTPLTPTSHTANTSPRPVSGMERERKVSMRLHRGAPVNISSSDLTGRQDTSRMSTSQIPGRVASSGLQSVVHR

IKBKB (human) = IKBKB (human) (UniProt O14920)
MAPK3 (human) = MAPK3 (human) (UniProt P27361)
MAPKAPK3 (human) = MAPKAPK3 (human) (UniProt Q16644)
MAP2K1 (human) = MAP2K1 (human) (UniProt Q02750)
RIPK2 (human) = RIPK2 (human) (UniProt O43353)
Sequence of RIPK2 (human) (O43353 whole entry, looked up): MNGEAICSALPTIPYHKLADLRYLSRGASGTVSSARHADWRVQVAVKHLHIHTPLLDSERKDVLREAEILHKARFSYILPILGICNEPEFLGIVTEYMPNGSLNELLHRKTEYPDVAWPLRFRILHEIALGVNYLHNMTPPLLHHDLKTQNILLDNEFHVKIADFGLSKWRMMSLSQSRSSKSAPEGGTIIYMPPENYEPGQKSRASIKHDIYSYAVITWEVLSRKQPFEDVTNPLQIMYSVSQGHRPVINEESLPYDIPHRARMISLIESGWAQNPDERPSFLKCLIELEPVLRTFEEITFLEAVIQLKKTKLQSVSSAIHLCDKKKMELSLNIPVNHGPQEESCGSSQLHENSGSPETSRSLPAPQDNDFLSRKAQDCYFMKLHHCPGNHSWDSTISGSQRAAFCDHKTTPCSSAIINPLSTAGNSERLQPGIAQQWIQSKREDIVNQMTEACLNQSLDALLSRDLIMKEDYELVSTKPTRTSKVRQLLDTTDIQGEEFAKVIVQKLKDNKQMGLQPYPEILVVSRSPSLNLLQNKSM

RPS6KA5 KD1 KD2 (human) = RPS6KA5 KD1 KD2 (human) (UniProt O75582)
Sequence of RPS6KA5 KD1 KD2 (human) (O75582 whole entry, looked up): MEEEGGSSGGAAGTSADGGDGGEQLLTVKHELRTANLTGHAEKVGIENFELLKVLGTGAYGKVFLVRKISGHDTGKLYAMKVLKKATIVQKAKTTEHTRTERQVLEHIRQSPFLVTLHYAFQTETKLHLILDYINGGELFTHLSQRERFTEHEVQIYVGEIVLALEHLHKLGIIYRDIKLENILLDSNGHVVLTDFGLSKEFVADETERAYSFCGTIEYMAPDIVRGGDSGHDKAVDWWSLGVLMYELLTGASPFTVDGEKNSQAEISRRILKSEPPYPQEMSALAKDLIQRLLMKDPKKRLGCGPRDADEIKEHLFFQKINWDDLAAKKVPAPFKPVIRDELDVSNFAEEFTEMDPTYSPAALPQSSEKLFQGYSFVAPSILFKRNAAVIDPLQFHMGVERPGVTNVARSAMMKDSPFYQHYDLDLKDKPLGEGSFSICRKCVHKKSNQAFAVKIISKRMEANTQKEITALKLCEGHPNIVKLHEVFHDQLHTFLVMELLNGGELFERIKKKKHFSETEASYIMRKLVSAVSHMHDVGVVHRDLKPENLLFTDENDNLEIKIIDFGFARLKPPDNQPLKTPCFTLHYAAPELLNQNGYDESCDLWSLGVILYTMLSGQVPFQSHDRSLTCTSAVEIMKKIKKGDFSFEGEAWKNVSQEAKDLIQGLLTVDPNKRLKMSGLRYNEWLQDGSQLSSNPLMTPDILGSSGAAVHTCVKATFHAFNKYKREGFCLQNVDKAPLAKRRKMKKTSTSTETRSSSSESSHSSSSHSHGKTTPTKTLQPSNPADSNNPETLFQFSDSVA

PIM2 (human) = PIM2 (human) (UniProt Q9P1W9)
PLK1 (human) = PLK1 (human) (UniProt P53350)
TTK (human) = TTK (human) (UniProt P33981)
EPHB4 (human) = EPHB4 (human) (UniProt P54760)
RPS6KA1 KD1 KD2 (human) = RPS6KA1 KD1 KD2 (human) (UniProt Q15418)
MAPK14 (human) = MAPK14 (human) (UniProt Q16539)
Sequence of MAPK14 (human) (Q16539 whole entry, looked up): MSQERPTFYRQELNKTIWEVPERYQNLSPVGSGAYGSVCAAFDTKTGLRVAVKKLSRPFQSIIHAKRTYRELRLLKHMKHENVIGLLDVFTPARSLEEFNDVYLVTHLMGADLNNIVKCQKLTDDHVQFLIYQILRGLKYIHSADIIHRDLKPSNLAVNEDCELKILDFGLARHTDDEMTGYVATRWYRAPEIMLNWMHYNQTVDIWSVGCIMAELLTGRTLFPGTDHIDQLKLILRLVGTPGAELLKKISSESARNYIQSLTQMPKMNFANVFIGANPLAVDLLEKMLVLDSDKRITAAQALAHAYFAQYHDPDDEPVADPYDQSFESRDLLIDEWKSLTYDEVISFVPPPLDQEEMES

NEK6 (human) = NEK6 (human) (UniProt Q9HC98)
Sequence of NEK6 (human) (Q9HC98 whole entry, looked up): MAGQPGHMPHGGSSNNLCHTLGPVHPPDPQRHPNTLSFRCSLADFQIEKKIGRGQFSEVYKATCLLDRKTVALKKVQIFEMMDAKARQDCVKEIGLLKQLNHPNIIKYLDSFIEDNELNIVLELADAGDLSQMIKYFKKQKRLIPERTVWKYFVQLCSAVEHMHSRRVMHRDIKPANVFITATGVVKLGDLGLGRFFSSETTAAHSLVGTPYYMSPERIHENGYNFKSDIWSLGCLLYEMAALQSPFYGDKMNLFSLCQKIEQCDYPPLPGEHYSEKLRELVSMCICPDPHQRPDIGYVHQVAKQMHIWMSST

EPHA4 (human) = EPHA4 (human) (UniProt P54764)
MAPK15 (human) = MAPK15 (human) (UniProt Q8TD08)
Sequence of MAPK15 (human) (Q8TD08 whole entry, looked up): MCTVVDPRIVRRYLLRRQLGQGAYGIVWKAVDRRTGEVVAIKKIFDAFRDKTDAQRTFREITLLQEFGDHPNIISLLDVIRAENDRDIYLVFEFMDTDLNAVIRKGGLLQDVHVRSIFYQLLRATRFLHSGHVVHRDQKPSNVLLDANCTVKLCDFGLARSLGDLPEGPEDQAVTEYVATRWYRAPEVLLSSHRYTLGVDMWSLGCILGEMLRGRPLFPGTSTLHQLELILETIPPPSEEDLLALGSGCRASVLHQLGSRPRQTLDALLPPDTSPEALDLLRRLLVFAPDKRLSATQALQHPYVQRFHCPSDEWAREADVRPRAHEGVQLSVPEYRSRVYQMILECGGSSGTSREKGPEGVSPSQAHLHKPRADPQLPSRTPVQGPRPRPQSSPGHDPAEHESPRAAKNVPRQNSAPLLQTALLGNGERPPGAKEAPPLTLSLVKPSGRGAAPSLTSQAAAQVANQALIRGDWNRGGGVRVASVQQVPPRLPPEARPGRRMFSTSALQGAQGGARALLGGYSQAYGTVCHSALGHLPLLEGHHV

RPS6KA3 KD1 KD2 (human) = RPS6KA3 KD1 KD2 (human) (UniProt P51812)

`COc1cc(C(=O)N2CCOCC2)c(F)cc1Nc1ncc(C(F)(F)F)c(NC2CC2)n1` gave a residual activity (BTK (human); compound 1.0 µM) of 115%, a residual activity (SYK (human)) of 44% and a residual activity (MKNK2 (human); compound 1.0 µM) of 58%. It also gave a residual activity (MKNK2 (human); compound 10.0 µM) of 22%, a residual activity (PAK7 (human); compound 1.0 µM) of 94% and a residual activity (PAK7 (human); compound 10.0 µM) of 79%. The residual activity (CHEK2 (human); compound 1.0 µM) was 18%, the residual activity (CHEK2 (human); compound 10.0 µM) was 3% and the residual activity (PRKAA1 or PRKAA2 (rat); compound 10.0 µM) was 70%. For the same molecule, the residual activity (MAPK1 (human); compound 1.0 µM) was 95%, the residual activity (MAPK1 (human); compound 10.0 µM) was 55% and the residual activity (IKBKE (human); compound 1.0 µM) was 94%. The residual activity (IKBKE (human); compound 10.0 µM) was 55%, the residual activity (EPHB1 (human); compound 1.0 µM) was 93% and the residual activity (EPHB1 (human); compound 10.0 µM) was 91%. The residual activity (SRC (human); compound 1.0 µM) was 107%, the residual activity (SRC (human); compound 10.0 µM) was 81% and the residual activity (CDK2 CCNA2 (human); compound 1.0 µM) was 94%. It also gave a residual activity (CDK2 CCNA2 (human); compound 10.0 µM) of 72%, a residual activity (NEK2 (human); compound 1.0 µM) of 97% and a residual activity (NEK2 (human); compound 10.0 µM) of 72%. For the same molecule, the residual activity (PRKACA (human); compound 1.0 µM) was 102%, the residual activity ([1]; compound 1.0 µM) was 89% and the residual activity ([1]; compound 10.0 µM) was 68%. The residual activity ([2]; compound 1.0 µM) was 99%, the residual activity ([2]; compound 10.0 µM) was 98% and the residual activity (FLT1 (human); compound 1.0 µM) was 55%. It also gave a residual activity (FLT1 (human); compound 10.0 µM) of 14%, a residual activity (INSRR (human); compound 1.0 µM) of 84% and a residual activity (INSRR (human); compound 10.0 µM) of 67%. It also gave a residual activity (CSK (human); compound 1.0 µM) of 102%, a residual activity (CSK (human); compound 10.0 µM) of 101% and a residual activity (CSNK1D (human); compound 1.0 µM) of 95%. For the same molecule, the residual activity (CSNK1D (human); compound 10.0 µM) was 67%, the residual activity (IKBKB (human); compound 1.0 µM) was 97% and the residual activity (IKBKB (human); compound 10.0 µM) was 89%. For the same molecule, the residual activity (MAPK3 (human); compound 1.0 µM) was 79%, the residual activity (MAPK3 (human); compound 10.0 µM) was 49% and the residual activity (MAPKAPK3 (human); compound 1.0 µM) was 108%. The residual activity (MAPKAPK3 (human); compound 10.0 µM) was 124%, the residual activity (MAP2K1 (human); compound 1.0 µM) was 95% and the residual activity (MAP2K1 (human); compound 10.0 µM) was 81%. It also gave a residual activity (RIPK2 (human); compound 1.0 µM) of 94%, a residual activity (RIPK2 (human); compound 10.0 µM) of 79% and a residual activity (RPS6KA5 KD1 KD2 (human); compound 1.0 µM) of 85%. For the same molecule, the residual activity (RPS6KA5 KD1 KD2 (human); compound 10.0 µM) was 65%, the residual activity (PIM2 (human); compound 1.0 µM) was 100% and the residual activity (PIM2 (human); compound 10.0 µM) was 107%. For the same molecule, the residual activity (PLK1 (human); compound 1.0 µM) was 78%, the residual activity (PLK1 (human); compound 10.0 µM) was 40% and the residual activity (TTK (human); compound 1.0 µM) was 56%. The residual activity (TTK (human); compound 10.0 µM) was 31%, the residual activity (EPHB4 (human); compound 1.0 µM) was 94% and the residual activity (EPHB4 (human); compound 10.0 µM) was 94%. It also gave a residual activity (RPS6KA1 KD1 KD2 (human); compound 1.0 µM) of 54%, a residual activity (RPS6KA1 KD1 KD2 (human); compound 10.0 µM) of 14% and a residual activity (MAPK14 (human); compound 1.0 µM) of 84%. The residual activity (MAPK14 (human); compound 10.0 µM) was 119%, the residual activity (NEK6 (human); compound 1.0 µM) was 112% and the residual activity (NEK6 (human); compound 10.0 µM) was 90%. For the same molecule, the residual activity (EPHA4 (human); compound 1.0 µM) was 86%, the residual activity (EPHA4 (human); compound 10.0 µM) was 98% and the residual activity (MAPK15 (human); compound 1.0 µM) was 81%. For the same molecule, the residual activity (MAPK15 (human); compound 10.0 µM) was 28%, the residual activity (RPS6KA3 KD1 KD2 (human); compound 1.0 µM) was 77% and the residual activity (RPS6KA3 KD1 KD2 (human); compound 10.0 µM) was 25%.
In the case of `Cc1ccc2c(c1)C(=O)[C@@]1(O)CCN(c3ccccc3)C1=N2`, the residual activity (BTK (human); compound 10.0 µM) was 82%, the residual activity (SYK (human)) was 105% and the residual activity (MKNK2 (human); compound 10.0 µM) was 104%. It also gave a residual activity (PAK7 (human); compound 10.0 µM) of 73%, a residual activity (CHEK2 (human); compound 10.0 µM) of 100% and a residual activity (PRKAA1 or PRKAA2 (rat); compound 10.0 µM) of 92%. The residual activity (PRKAA1 or PRKAA2 (rat); compound 100.0 µM) was 60%, the residual activity (MAPK1 (human); compound 10.0 µM) was 91% and the residual activity (MAPK1 (human); compound 100.0 µM) was 82%. The residual activity (IKBKE (human); compound 10.0 µM) was 85%, the residual activity (EPHB1 (human); compound 10.0 µM) was 97% and the residual activity (SRC (human); compound 10.0 µM) was 80%. The residual activity (CDK2 CCNA2 (human); compound 10.0 µM) was 116%, the residual activity (CDK2 CCNA2 (human); compound 100.0 µM) was 92% and the residual activity (NEK2 (human); compound 10.0 µM) was 77%. The residual activity (NEK2 (human); compound 100.0 µM) was 82%, the residual activity (PRKACA (human); compound 10.0 µM) was 101% and the residual activity (PRKACA (human); compound 100.0 µM) was 70%. The residual activity ([1]; compound 10.0 µM) was 92%, the residual activity ([1]; compound 100.0 µM) was 71% and the residual activity ([2]; compound 10.0 µM) was 74%. For the same molecule, the residual activity (FLT1 (human); compound 10.0 µM) was 85%, the residual activity (INSRR (human); compound 10.0 µM) was 88% and the residual activity (CSK (human); compound 10.0 µM) was 69%. The residual activity (CSK (human); compound 100.0 µM) was 67%, the residual activity (CSNK1D (human); compound 10.0 µM) was 99% and the residual activity (CSNK1D (human); compound 100.0 µM) was 91%. The residual activity (IKBKB (human); compound 10.0 µM) was 96%, the residual activity (MAPK3 (human); compound 10.0 µM) was 102% and the residual activity (MAPKAPK3 (human); compound 10.0 µM) was 86%. The residual activity (MAP2K1 (human); compound 10.0 µM) was 89%, the residual activity (MAP2K1 (human); compound 100.0 µM) was 99% and the residual activity (RIPK2 (human); compound 10.0 µM) was 90%. It also gave a residual activity (RPS6KA5 KD1 KD2 (human); compound 10.0 µM) of 83%, a residual activity (RPS6KA5 KD1 KD2 (human); compound 100.0 µM) of 75% and a residual activity (PIM2 (human); compound 10.0 µM) of 93%. It also gave a residual activity (PLK1 (human); compound 10.0 µM) of 99%, a residual activity (TTK (human); compound 10.0 µM) of 87% and a residual activity (EPHB4 (human); compound 10.0 µM) of 99%. It also gave a residual activity (RPS6KA1 KD1 KD2 (human); compound 10.0 µM) of 76%, a residual activity (RPS6KA1 KD1 KD2 (human); compound 100.0 µM) of 77% and a residual activity (MAPK14 (human); compound 10.0 µM) of 101%. The residual activity (MAPK14 (human); compound 100.0 µM) was 80%, the residual activity (NEK6 (human); compound 10.0 µM) was 107% and the residual activity (NEK6 (human); compound 100.0 µM) was 85%. It also gave a residual activity (EPHA4 (human); compound 10.0 µM) of 108%, a residual activity (MAPK15 (human); compound 10.0 µM) of 89% and a residual activity (RPS6KA3 KD1 KD2 (human); compound 10.0 µM) of 72%.
